How the values were obtained:
[1] = Phase solubility studies of nepafenac with cyclodextrins; type: physicochemical; conditions: pure 2.5% HPβCD, aqueous (Figure 2)
Protocol: The solubility of nepafenac in combination with different cyclodextrin concentrations was determined following heating by sonication. Firstly, an excess amount of nepafenac (approximately 5 mg) was added to aqueous solutions containing known concentrations of CDs (ranging up to 15% (w/v) for αCD, γCD, HPαCD, HPβCD, HPγCD and 1.5% (w/v) for βCD) in pure water. The drug suspensions were saturated with nepafenac and heated in a sonicator in sealed vials at 60 °C for 60 min, before being allowed to cool to room temperature. Then, a small amount of solid nepafenac (approximately 2 mg) was added to each suspension to produce drug precipitation. Vials were resealed and placed in a shaker under constant agitation for 7 days. After reaching equilibrium, suspensions were filtered using 0.45 µm membrane filters, before being diluted in pure water and analysed by UHPLC. Determinations were made in triplicate. […]
The apparent stability constant (K1:1) according to the hypothesis of a 1:1 stoichiometric ratio of complexes was calculated using the following equation:(1) K1:1 = slope/S0(1−slope)
In addition, complexation efficiency (CE) was calculated. This factor can be calculated either from the slope of the phase solubility profile or from the ratio of the concentration of the drug/CD complex to free CD [52]:(2) CE=slope/(1−slope)=[Guess/CD complex]/[CD]

[2] = set-up: method as in PMID 27513223, PMID 18500088, PMID 17189793, PMID 28493461; conditions: powdered form; cited from earlier work
[3] = Chemical stability of nepafenac in 1% w/v γCD solution after heating by sonication; type: physicochemical; conditions: for Mean (± SD) Nepafenac Concentration: aqueous 1% w/v γCD, n = 3
Protocol: The chemical stability of nepafenac was determined in aqueous solution containing 1% w/v γCD following heating by sonication. The solution was shaken for 24 h until the drug was completely dissolved and then passed through a 0.45 µm membrane filter. The solution was then divided between four sealed vials. Vial 1 was used as a blank. Vials 2, 3 and 4 were heated in a sonicator at 60 °C for 20, 40 and 60 min, respectively. Drug concentrations were determined by HPLC.
The HPLC assay was performed using a reverse-phase ultra-high-performance liquid chromatography (UHPLC) Ultimate 3000 series system (Dionex Softron GmbH, Germering, Germany) consisting of a LPG-3400SD pump (Dionex, Germering, Germany) with a built-in degasser, WPS-3000 autosampler (Dionex, Germering, Germany), TCC-3100 column compartment (Dionex, Germering, Germany) and CoronaR ultra RS detector (Dionex, Germering, Germany). During the stationary phase, a Phenomenex Kinetex C18 column (150 × 4.6 mm, 5 µm) with matching HPLC Security Guard (Phenomenex, Cheshire, UK) was used. The mobile phase used a mixture of acetonitrile and water (50:50). The flow rate was 1 mL/min, the column oven temperature was ±25 °C and the detection wave length was set to 254 nm. The retention time for nepafenac under these conditions was 2.3 min.

[4] = system: human cornea epithelial cell line; set-up: method as in PMID 9706061; conditions: cited from earlier work

Row | Solubility of nepafenac [1] [µg/mL] | Degradation of nepafenac on heating by sonication ([3]; CD aqueous solutions, sonicator heating) | Mean (± SD) Nepafenac Concentration ([3]; sonication 60 °C 20 min) [µg/mL] | Mean (± SD) Nepafenac Concentration ([3]; sonication 60 °C 40 min) [µg/mL] | Mean (± SD) Nepafenac Concentration ([3]; sonication 60 °C 60 min) [µg/mL] | SMILES | Biopharmaceutical Classification System class [2] | Cytotoxic profile (ranking among CDs) [4]
1 | 850 | no degradation | 6.41 ± 0.08 | 6.49 ± 0.07 | 6.57 ± 0.08 | NC(=O)Cc1cccc(C(=O)c2ccccc2)c1N [Nepafenac, 2-amino-3-benzoylbenzeneacetamide] | class IV | –
2 | – | – | – | – | – | OC[C@H]1O[C@@H]2O[C@H]3[C@H](O)[C@@H](O)[C@@H](O[C@H]4[C@H](O)[C@@H](O)[C@@H](O[C@H]5[C@H](O)[C@@H](O)[C@@H](O[C@H]6[C@H](O)[C@@H](O)[C@@H](O[C@H]7[C@H](O)[C@@H](O)[C@@H](O[C@H]8[C@H](O)[C@@H](O)[C@@H](O[C@H]9[C@H](O)[C@@H](O)[C@@H](O[C@H]1[C@H](O)[C@H]2O)O[C@@H]9CO)O[C@@H]8CO)O[C@@H]7CO)O[C@@H]6CO)O[C@@H]5CO)O[C@@H]4CO)O[C@@H]3CO [γCD, γ-cyclodextrin] | – | least cytotoxic profile
